We go through 15 molecules from publication PMC11985751, “Synthesis, bioactivity, and molecular docking studies: novel arylpiperazine derivatives as potential new-resistant AR antagonists” (Frontiers in Chemistry, 2025).

A value given as a limit tells only on which side of the number the result lay.

One assay deals with WPMY-1. The assay is described as follows: In vitro cytotoxicity, CCK-8 assay (normal prostatic epithelial cells). Type of assay: cell-based. Conditions: Homo sapiens; WPMY-1 normal prostatic epithelial cells, CCK-8, mean ± SD of three trials. On the procedure: (§1) PC-3 and WPMY-1 cells were cultured in Dulbecco’s modiffcation Eagle’s medium (DMEM, Invitrogen, Carlsbad, CA, United States) supplemented with 10% fetal bovine serum (FBS, Hyclone, Logan, UT, United States), 100 U/mL penicillin and 0.1 mg/mL streptomycin (Invitrogen). DU145 cells were cultured in RPMI1640 media supplemented with 10% fetal bovine serum (FBS, Hyclone), 100 U/mL penicillin and 0.1 mg/mL streptomycin (Invitrogen). LNCaP cells were cultured in F12 media supplemented with 10% fetal bovine serum (FBS, Hyclone), 100 U/mL penicillin and 0.1 mg/mL streptomycin (Invitrogen). The cells were incubated at 37°C in a humidified atmosphere with 5% CO2([Chen et al., 2025]; [Jiang et al., 2024]). […]
(§2) The compound concentrations were set at 30, 15, 7.5, 3.75, 1.88, and 0.94 μmol/L. The absorbance (A) was measured at 450 nm using a microplate reader. […] All experiments were repeated three times under identical conditions, and the mean value was taken as the final result.
(§3) The cytotoxic activity of derivatives 5–24 against three human prostate cancer cell lines (PC-3, LNCaP, and DU145) and one type of human normal prostate epithelial cells was evaluated using the CCK-8 method.
(Tetrazolium dyes change colour on reduction, which living cells bring about.)

The next assay deals with DU145. In words: In vitro cytotoxicity, CCK-8 assay. Type of assay: cell-based. The settings on record: Homo sapiens, DU-145; DU145 cells, CCK-8, mean ± SD of three trials. The protocol:
as §1, §2, §3

For another assay, the system named is LNCaP. In words: In vitro cytotoxicity, CCK-8 assay. Type of assay: cell-based, human. Conditions: Homo sapiens, LNCaP, LNCaP cells, CCK-8, mean ± SD of three trials. On the procedure:
PC-3 and WPMY-1 cells were cultured in Dulbecco’s modiffcation Eagle’s medium (DMEM, Invitrogen, Carlsbad, CA, United States) supplemented with 10% fetal bovine serum (FBS, Hyclone, Logan, UT, United States), 100 U/mL penicillin and 0.1 mg/mL streptomycin (Invitrogen). DU145 cells were cultured in RPMI1640 media supplemented with 10% fetal bovine serum (FBS, Hyclone), 100 U/mL penicillin and 0.1 mg/mL streptomycin (Invitrogen). LNCaP cells were cultured in F12 media supplemented with 10% fetal bovine serum (FBS, Hyclone), 100 U/mL penicillin and 0.1 mg/mL streptomycin (Invitrogen). The cells were incubated at 37°C in a humidified atmosphere with 5% CO2([Chen et al., 2025]; [Jiang et al., 2024]).
The proliferative capacity of cells was evaluated through the implementation of a Cell Counting Kit-8 (CCK-8) assay, supplied by Dojindo (Japan), to quantify cellular growth. Post-transfection, cells were dispensed into a 96-well microplate at a density of 3 × 10^3 cells per well and incubated for intervals of 0, 24, 48, 72, 96, and 120 h. Following this, 10 μL of the CCK-8 solution was introduced into each well and the plates were returned to the incubator for an additional 2-h period at 37°C under 5% CO2 conditions. Absorbance readings at 450 nm were subsequently taken using an ELISA reader manufactured by Bio Tek (United States) ([Chen et al., 2022]; [Zhou et al., 2024]).
as §2, §3

For another assay, the system named is PC-3. In words: In vitro cytotoxicity, CCK-8 assay. The format is cell-based, human. Conditions: Homo sapiens, PC-3, PC-3 cells, CCK-8, mean ± SD of three trials. On the procedure: as §1, §2, §3
Another assay has as its target T1, AR (Homo sapiens, UniProt P10275).
T1 sequence (P10275 1-920): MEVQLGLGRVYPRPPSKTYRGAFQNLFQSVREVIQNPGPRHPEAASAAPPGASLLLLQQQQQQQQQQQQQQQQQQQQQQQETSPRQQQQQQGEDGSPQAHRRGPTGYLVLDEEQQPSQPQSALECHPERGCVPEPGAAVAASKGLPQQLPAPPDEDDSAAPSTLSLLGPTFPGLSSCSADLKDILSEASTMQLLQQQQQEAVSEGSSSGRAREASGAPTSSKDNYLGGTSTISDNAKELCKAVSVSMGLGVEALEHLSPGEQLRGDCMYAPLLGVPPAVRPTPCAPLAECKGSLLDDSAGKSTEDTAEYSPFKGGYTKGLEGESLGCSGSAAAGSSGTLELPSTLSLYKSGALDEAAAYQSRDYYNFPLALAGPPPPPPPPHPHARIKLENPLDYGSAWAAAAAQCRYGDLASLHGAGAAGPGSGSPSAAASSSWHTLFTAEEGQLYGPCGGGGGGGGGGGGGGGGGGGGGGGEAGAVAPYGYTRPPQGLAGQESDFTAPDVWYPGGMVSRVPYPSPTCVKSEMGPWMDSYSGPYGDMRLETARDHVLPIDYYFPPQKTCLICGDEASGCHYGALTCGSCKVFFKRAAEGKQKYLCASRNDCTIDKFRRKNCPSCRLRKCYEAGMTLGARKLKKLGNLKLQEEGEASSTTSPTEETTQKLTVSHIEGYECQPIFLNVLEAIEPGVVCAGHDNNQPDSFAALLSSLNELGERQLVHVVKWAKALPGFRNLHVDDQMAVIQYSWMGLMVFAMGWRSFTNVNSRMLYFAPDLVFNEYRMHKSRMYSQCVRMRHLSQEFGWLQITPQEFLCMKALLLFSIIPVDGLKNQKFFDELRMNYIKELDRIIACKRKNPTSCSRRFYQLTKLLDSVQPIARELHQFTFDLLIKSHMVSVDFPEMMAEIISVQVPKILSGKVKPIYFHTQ
In words: AR reporter gene (luciferase) assay, co-treatment with 1 nM R1881. The format is cell-based. Conditions: 10 μM compound, inhibition rate as ratio to R1881 control, read-out: AR antagonistic activity% (10 μM). On the procedure: RLUs were measured using a luminometer (GloMaxTM 96-Microplate Luminometer, Promega) and are reported as the mean ± SEM of three individual experiments. For agonists, fold of induction = LUinduced/RLUuninduced. For antagonists, % of control = 100 × RLU (agonist + antagonist)/RLU (agonist alone). All RLUs were normalized against ffreffy RLUs/Renilla RLUs. Data are expressed as EC50/IC50 values in μM, and the IC50 of […] (μM) was calculated by plotting the data using nonlinear regression analysis in Graph-Pad Prism 5 software.
On the technique in general: Reporter assays use an easily measured gene product as a stand-in for the process of interest.

A further assay deals with T2, AR-LBD (GST) (Rattus norvegicus, UniProt P15207).
T2 sequence (P15207 651-882 limits assumed): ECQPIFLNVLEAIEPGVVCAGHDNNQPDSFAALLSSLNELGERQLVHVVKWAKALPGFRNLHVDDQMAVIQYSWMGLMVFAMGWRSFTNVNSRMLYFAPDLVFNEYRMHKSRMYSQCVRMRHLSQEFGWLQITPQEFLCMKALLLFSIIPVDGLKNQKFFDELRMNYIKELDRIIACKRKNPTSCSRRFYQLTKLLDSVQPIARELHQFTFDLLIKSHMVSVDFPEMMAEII
In words: Fluorescence polarization, PolarScreen AR Competitor Assay, Green. Background: Fluorescence polarisation rises when a labelled molecule tumbles more slowly, as on binding a larger partner.

Method for AR-LBD (GST): Brieffy, the assay entails titration of the test compound against a preformed complex of Fluormone™AL Green and the AR-LBD (GST). […] Data analysis for the ligand binding assays was performed using Prism software (GraphPad Software, Inc.).

For `c1ccc(OCCc2ccc(CN3CCN(C(c4ccccc4)c4ccccc4)CC3)cc2)cc1` [Compound 5, 1-benzhydryl-4-(4-(2-phenoxyethyl)benzyl)piperazine], the IC50 was greater than 50 µM in the assay on WPMY-1, greater than 50 µM in the assay with DU145, greater than 50 µM with LNCaP and 13.08 ± 0.12 µM in the assay with PC-3.

Consider `Fc1ccc(OCCc2ccc(CN3CCN(C(c4ccccc4)c4ccccc4)CC3)cc2)cc1` [Compound 6, 1-benzhydryl-4-(4-(2-(4-fluorophenoxy)ethyl)benzyl)piperazine], for which the IC50 in the assay with WPMY-1 was greater than 50 µM; with DU145, greater than 50 µM; in the assay with LNCaP, greater than 50 µM; in the assay with PC-3 it was 34.39 ± 0.17 µM.

Regarding `N#Cc1ccc(OCCc2ccc(CN3CCN(C(c4ccccc4)c4ccccc4)CC3)cc2)cc1` [Compound 8, 4-(4-((4-benzhydrylpiperazin-1-yl)methyl)phenethoxy)benzonitrile], the half-maximal inhibitory concentration (IC50) is 17.56 ± 0.12 µM in the assay on WPMY-1, 19.83 ± 0.14 µM with DU145, 22.36 ± 0.2 µM in the assay on LNCaP and 12.54 ± 0.11 µM with PC-3.

On to `Ic1ccc(OCCc2ccc(CN3CCN(C(c4ccccc4)c4ccccc4)CC3)cc2)cc1` [Compound 9, 1-benzhydryl-4-(4-(2-(4-iodophenoxy)ethyl)benzyl)piperazine], for which the IC50 in the assay on WPMY-1 is greater than 50 µM; in the assay with DU145, greater than 50 µM; with LNCaP, greater than 50 µM; in the assay with PC-3, 15.2 ± 0.19 µM.

As to `Clc1ccc(OCCc2ccc(CN3CCN(C(c4ccccc4)c4ccccc4)CC3)cc2)cc1Cl` [Compound 10, 1-benzhydryl-4-(4-(2-(3,4-dichlorophenoxy)ethyl)benzyl)piperazine], the IC50 in the assay on WPMY-1 was greater than 50 µM; in the assay with DU145 it was greater than 50 µM; in the assay with LNCaP it was greater than 50 µM; in the assay with PC-3 it was 17.44 ± 0.07 µM.

As to `Cc1cccc(OCCc2ccc(CN3CCN(C(c4ccccc4)c4ccccc4)CC3)cc2)c1` [Compound 12, 1-benzhydryl-4-(4-(2-(m-tolyloxy)ethyl)benzyl)piperazine], the IC50 in the assay on WPMY-1 is 28.54 ± 0.16 µM; in the assay with DU145, 34.43 ± 0.15 µM; in the assay on LNCaP, 19.6 ± 0.23 µM; in the assay on PC-3 it was greater than 50 µM.

Take `Clc1ccccc1OCCc1ccc(CN2CCN(C(c3ccccc3)c3ccccc3)CC2)cc1` [Compound 13, 1-benzhydryl-4-(4-(2-(2-chlorophenoxy)ethyl)benzyl)piperazine]: the IC50 in the assay with WPMY-1 came to 17.83 ± 0.17 µM; with DU145, 21.24 ± 0.16 µM; with LNCaP it was 12.2 ± 0.25 µM; with PC-3 it was 15.35 ± 0.08 µM.

On to `Brc1ccccc1OCCc1ccc(CN2CCN(C(c3ccccc3)c3ccccc3)CC2)cc1` [Compound 14, 1-benzhydryl-4-(4-(2-(2-bromophenoxy)ethyl)benzyl)piperazine], for which the IC50 in the assay on WPMY-1 is greater than 50 µM; in the assay with DU145, greater than 50 µM; in the assay with LNCaP it was greater than 50 µM; in the assay with PC-3 it was 19.12 ± 0.16 µM.

In the case of `Cc1ccc(OCCc2ccc(CN3CCN(C(c4ccccc4)c4ccccc4)CC3)cc2)cc1` [Compound 15, 1-benzhydryl-4-(4-(2-(p-tolyloxy)ethyl)benzyl)piperazine], the IC50 with WPMY-1 is 14.72 ± 0.14 µM; with DU145, 13.7 ± 0.14 µM; in the assay with LNCaP, 9.29 ± 0.23 µM; in the assay on PC-3, 20.49 ± 0.12 µM.

Consider `CCOc1ccc(OCCc2ccc(CN3CCN(C(c4ccccc4)c4ccccc4)CC3)cc2)cc1` [Compound 16, 1-benzhydryl-4-(4-(2-(4-ethoxyphenoxy)ethyl)benzyl)piperazine], for which the IC50 with WPMY-1 is greater than 50 µM; with DU145, greater than 50 µM; with LNCaP it was greater than 50 µM; in the assay on PC-3 it was 13.6 ± 0.09 µM.

As to `c1ccc(C(c2ccccc2)N2CCN(Cc3ccc(CCOc4cccc5c4CCCC5)cc3)CC2)cc1` [Compound 17, 1-benzhydryl-4-(4-(2-((5,6,7,8-tetrahydronaphthalen-1-yl)oxy)ethyl)benzyl)piperazine], the 50% inhibitory concentration (IC50) is greater than 50 µM in the assay with WPMY-1, 7.32 ± 0.08 µM in the assay on DU145 and 1.14 ± 0.12 µM on AR-LBD (GST). For the same molecule, at AR, the activity at 10 µM is greater than 60%.

Turning to `c1ccc(C(c2ccccc2)N2CCN(Cc3ccc(CCOc4ccc5c(c4)CCCC5)cc3)CC2)cc1` [Compound 18, 1-benzhydryl-4-(4-(2-((5,6,7,8-tetrahydronaphthalen-2-yl)oxy)ethyl)benzyl)piperazine], the IC50 in the assay on WPMY-1 was greater than 50 µM; in the assay with DU145, 14.4 ± 0.15 µM; with LNCaP, greater than 50 µM; with PC-3 it was 5.02 ± 0.12 µM.

Turning to `Cc1ccccc1OCCc1ccc(CN2CCN(C(c3ccccc3)c3ccccc3)CC2)cc1` [Compound 19, 1-benzhydryl-4-(4-(2-(o-tolyloxy)ethyl)benzyl)piperazine], the IC50 in the assay on WPMY-1 was greater than 50 µM; in the assay on DU145 it was 0.87 ± 0.04 µM; at AR-LBD (GST), 1.01 ± 0.03 µM. In addition, the activity at 10 µM on AR is greater than 60%.

As to `Cc1ccc(OCCc2ccc(CN3CCN(C(c4ccccc4)c4ccccc4)CC3)cc2)cc1C` [Compound 20, 1-benzhydryl-4-(4-(2-(3,4-dimethylphenoxy)ethyl)benzyl)piperazine], the IC50 in the assay on WPMY-1 is greater than 50 µM; in the assay with DU145, 3.89 ± 0.14 µM; on AR-LBD (GST), 1.66 ± 0.12 µM. The activity at 10 µM at AR was greater than 60%.

On to `COc1ccccc1N1CCN(CC(O)COc2cccc3ccccc23)CC1` (stereo not drawn) [Naftopidil, reference compound], for which the IC50 was greater than 50 µM in the assay with WPMY-1, 34.58 ± 0.31 µM in the assay with DU145, 22.4 ± 0.61 µM in the assay with LNCaP and 42.1 ± 0.79 µM in the assay with PC-3.

One may read the IC50 as the midpoint of a concentration-inhibition curve. Low readings indicate inhibition by little substance, high ones a need for much substance.
